Test results as given in patent US20230158136A1 (priority 2021, published 2023).
Where no end group is shown, it is not given here.

Experiment: in vitro
Conditions: human, 293T cells

With KKALLAHALHLLALLALHLAHALKKA-NH2 [LAH4] the CC50 at 24 h was greater than 125 mg/L.
